Assays:
[1] = test system: metastatic melanoma-affected patients
Experimental: The melanoma-affected patients are treated as follows. […] The treatment course spans 15 to 20 intravenous infusions. When a positive dynamic is achieved, the treatment course is followed until the pronounced effect is produced.
Along with an estimated rate of objected responses of therapeutical measures, a comparison was made between such indexes as the quality of life, endurability of therapeutic treatment, and total survivability. The study included the patients of the age period between 18-75 with histologically confirmed diagnoses of skin related melanomas. None of the patients had yet gone through chemotherapy. […] The treatment process continued to the point where the disease started progressing or side-effects developed that required the therapeutic measures to be terminated.
Dacarbazine in a dose of 2500 mg/mL was prescribed in a form of infusion that lasted sixty minutes (60 min.), once a day during successive five days, every four weeks on the 1-5 and 29-33rd days respectively. Repeated courses were carried out only in the patients whose progressing disease was not recorded.

albumin = experiment: Albumin coagulation, optic density on photoelectric calorimeter; assay type: biochemical; conditions: for coagulation of the protein (in words): albumin solution
Experimental: In the coagulation studies, albumin was used for the protein.
In the table, the calculated concentrations of the substances being investigated are listed.
One (1) ml of the tannin solution was put into the test-tube. One (1) ml of the albumin solution was added. 5 ml of water were added. The mixture was shaken. An optic density of the solution was determined on KΦK-2(photoelectric calorimeter) when Δ=260 nm, in cuvette=1 cm in 5, 10, 15, 20, 25 min.
Each weight was repeated three times and the optical density measured.
In addition, the control experiment was conducted with 1 ml of the albumin solution, 0.001 g of potassium iodide, 5 ml of water.

[2] = reaction with PSA; cited from earlier work
[3] = treated patients, hematological side-effect

CN(C)/N=N/c1[nH]cnc1C(N)=O [dacarbazine]
frequency of objective responses ([1]; melanoma patients, responses recorded in skin-based metastatic melanomas): 23%
neuropenia recorded [1, 3]: 14 % of observations
trombocytopenia recorded [1, 3]: 57 % of the patients

[I-].[K+] [potassium iodide]
optic density (albumin; 0.001 g of potassium iodide added to the tannin/albumin solution): 0.87
coagulation of the protein (in words) (albumin): did not possess coagulating capacity
optic density (albumin; another 0.001 g of potassium iodide added to the tannin/albumin solution): 0.92
turbidity in the solution (albumin; control: 1 ml albumin solution, 0.001 g potassium iodide, 5 ml water, one hour later): no turbidity

O=C(OC[C@H]1O[C@@H](OC(=O)c2cc(O)c(O)c(OC(=O)c3cc(O)c(O)c(O)c3)c2)[C@H](OC(=O)c2cc(O)c(O)c(OC(=O)c3cc(O)c(O)c(O)c3)c2)[C@@H](OC(=O)c2cc(O)c(O)c(OC(=O)c3cc(O)c(O)c(O)c3)c2)[C@@H]1OC(=O)c1cc(O)c(O)c(OC(=O)c2cc(O)c(O)c(O)c2)c1)c1cc(O)c(O)c(OC(=O)c2cc(O)c(O)c(O)c2)c1 [tannin, tannic acid]
moles of N-acetylneuraminic acid sedimented by each mole of tannic acid [2]: three
optic density d5 (albumin; 1 ml tannin solution + 1 ml albumin solution + 5 ml water, 260 nm, 1 cm cuvette, 5 min): 0.11
coagulation of the protein (in words) (albumin): No coagulation
optic density d10 (albumin; same mixture, 10 min): 0.16
optic density d20 (albumin; same mixture, 20 min): 0.19
optic density d25 (albumin; same mixture, 25 min): 0.19
period of precipitation for the reaction (albumin; tannin + albumin): 20 min

— patent US20130108713A1 (RYAOMA, INC., priority 2008, published 2013)
